Reference: US20140190726A1, “MIXTURE OF DECAFLUORO-2-METHYLBUTAN-3-ONE AND A CARRIER GAS AS A MEDIUM FOR ELECTRICAL INSULATION AND/OR FOR ELECTRIC ARC EXTINCTION IN MEDIUM-VOLTAGE” (SCHNEIDER ELECTRIC INDUSTRIES SAS, priority 2011, published 2014)

Key:
[1] = humans and animals; cited from earlier work
[2] = Saturation vapour pressure of C5K at minimum service temperatures; type: physicochemical; conditions: for PC5K pressure equivalent at 20° C. to the saturation vapour pressure: formula (II)
Experimental: Table I below indicates the saturation vapour pressures, noted PVSC5K, which C5K has at the temperatures of 0, −5, −10, −15, −20, −25, −30, −35 and −40° C., which are the minimum service temperatures typically found for medium- and high-voltage electrical devices.
It also indicates the pressure values, noted PC5K, which correspond at 20° C. to these saturation vapour pressures, and which are obtained by applying formula (II) above.

For `FS(F)(F)(F)(F)F` [SF6, sulphur hexafluoride], which Toxicity [1] is on record?
The Toxicity was “non-toxic for humans and animals”.

For `O=C(C(F)(F)F)C(F)(C(F)(F)F)C(F)(F)F` [C5K, decafluoro-2-methylbutan-3-one], which “PVSC5K saturation vapour pressure” value ([2]; 0° C.) is on record?
Its value is 41.3 kPa.

And the “PC5K pressure equivalent at 20° C. to the saturation vapour pressure” value (“PC5K pressure equivalent” for short) ([2]; 0° C.)?
Its value is 44.3 kPa.

And the “PVSC5K saturation vapour pressure” value ([2]; −5° C.)?
Its value is 33.6 kPa.

And the “PC5K pressure equivalent” value ([2]; −5° C.)?
Its value is 36.7 kPa.

What about the “PVSC5K saturation vapour pressure” value ([2]; −10° C.) of the same compound?
The value was 27.1 kPa.

What about the “PC5K pressure equivalent” value ([2]; −10° C.) of the same compound?
Its value is 30.2 kPa.

And the “PVSC5K saturation vapour pressure” value ([2]; −15° C.)?
The value was 21.7 kPa.

What about the “PC5K pressure equivalent” value ([2]; −15° C.) of the same compound?
The value was 24.7 kPa.

And the “PVSC5K saturation vapour pressure” value ([2]; −20° C.)?
The value was 17.3 kPa.

And the “PC5K pressure equivalent” value ([2]; −20° C.)?
Its value is 20.0 kPa.

What about the “PVSC5K saturation vapour pressure” value ([2]; −25° C.) of the same compound?
Its value is 13.6 kPa.

What about the “PC5K pressure equivalent” value ([2]; −25° C.) of the same compound?
Its value is 16.0 kPa.

What about the “PVSC5K saturation vapour pressure” value ([2]; −30° C.) of the same compound?
The value was 10.6 kPa.

And the “PC5K pressure equivalent” value ([2]; −30° C.)?
Its value is 12.7 kPa.

What about the “PVSC5K saturation vapour pressure” value ([2]; −35° C.) of the same compound?
Its value is 8.1 kPa.

What about the “PC5K pressure equivalent” value ([2]; −35° C.) of the same compound?
The value was 10.0 kPa.

What about the “PVSC5K saturation vapour pressure” value ([2]; −40° C.) of the same compound?
The value was 6.2 kPa.

What about the “PC5K pressure equivalent” value ([2]; −40° C.) of the same compound?
Its value is 7.8 kPa.
